Test results: patent US20140200825A1, “Method for predicting whether a cancer patient will not benefit from platinum-based chemotherapy agents” (Biodesix, Inc., priority 2012, published 2014)

How the values were obtained:
Format in all cases: in vivo, human
NSCLC = assay: Subgroup of NSCLC patients treated with docetaxel, overall survival by VeriStrat group; details: between VeriStrat Good and VeriStrat Poor patients, FIG. 6
Source text: FIG. 6 is a Kaplan-Meier plot of overall survival for a subgroup analysis of one of the cohorts studied in Taguchi et al., Mass spectrometry to classify non-small-cell lung cancer patients for clinical outcome after treatment with epidermal growth factor receptor tyrosine kinase inhibitors: a multicohort cross-institutional study.
Given our previous experience with VeriStrat separation in NSCLC and other cancers, we believe that the difference shown in FIGS. 1-4 and 7A-7B lies principally in the Poor group—i.e., that they probably benefit very little from the combination of gemcitabine+cisplatin (or possibly other combinations of chemotherapy based on a platinum agent), but can get outcomes similar to Good patients if they receive gemcitabine alone, or another non-platinum agent, for example, docetaxel. Our results in a subgroup of NSCLC patients treated with docetaxel show no difference in overall survival between VeriStrat Good and VeriStrat Poor patients (hazard ratio 1.03, p=0.95, see FIG. 6 for a Kaplan-Meier plot)

[1] = test system: advanced non-small cell lung cancer (NSCLC); assay: LCCC0512 study, gemcitabine arm, outcome by VeriStrat group; details: for median PFS: NSCLC patients treated with gemcitabine alone
Procedure: The LCCC0512 study was a randomized phase II trial of first-line treatment with gemcitabine, erlotinib or the combination in elderly (over 70 years old) patients with advanced non-small cell lung cancer (NSCLC). Patients had stage IIIB or IV NSCLC and ECOG performance status of 0-2. Patients were randomized to receive either a maximum of 4 cycles of gemcitabine (1200 mg/m^2 days 1,8 every 21 days), 150 mg erlotinib daily, or a maximum of 4 cycles of gemcitabine (1000 mg/m^2 days 1,8 every 21 days) with concurrent 100 mg erlotinib daily. Primary endpoint was progression-free survival at 6 months. Patients randomized to receive gemcitabine monotherapy were encouraged to continue on study to receive erlotinib after progression. A total of 146 patients were enrolled. No significant differences in PFS or OS were found between treatment arms.
Pretreatment serum or plasma samples from patients in the LCCC0512 trial were available for VeriStrat testing. 124 samples were received. Sixty four samples were classified as VeriStrat Good, 39 as VeriStrat Poor and 7 as Indeterminate (undefined/equivocal classification). Of the remaining samples 13 could not be processed due to hemolysis and data could not be collected from one sample. For 5 samples where VeriStrat testing was performed, the samples could not be matched to clinical data from the trial. This left 98 samples with VeriStrat classification of Good or Poor and clinical data for statistical analysis. The majority of the samples tested were plasma, but where plasma was not available for a few patients, serum samples were used. Of the samples on which VeriStrat testing yielded a result of Good or Poor only 5 were identified as serum.
Survival analysis was carried out using SAS Enterprise Guide (SAS 9.2). Difference between groups was assessed using log-rank p values. Both univariate and multivariate hazard ratios were evaluated using Cox proportional hazard models. Kaplan-Meier plots and p values for contingency tables were generated using PRISM (GraphPad). For purposes of this disclosure, the data of interest pertain to the “gemcitabine” arm.

ovarian cancer = assay: Ovarian cancer study, carboplatin and paclitaxel after surgery, outcome by VeriStrat group
Procedure: The data shown in FIGS. 7A and 7B reflect VeriStrat testing on a subset of 96 patients from a larger study of about 160 patients. In this study, serum samples were taken from ovarian cancer patients before surgery and retrospectively analyzed with the VeriStrat test. After surgery, the patients were treated with carboplatin and paclitaxel.

[2] = between VeriStrat groups, gemcitabine alone

## CC(=O)O[C@@]12CO[C@@H]1C[C@H](O)[C@@]1(C)C(=O)[C@H](O)C3=C(C)[C@@H](OC(=O)[C@H](O)[C@@H](NC(=O)OC(C)(C)C)c4ccccc4)C[C@@](O)([C@@H](OC(=O)c4ccccc4)[C@H]21)C3(C)C [docetaxel]
NSCLC
  hazard ratio, overall survival: 1.03

## Nc1ccn([C@@H]2O[C@H](CO)[C@@H](O)C2(F)F)c(=O)n1 [gemcitabine]
[1]; VeriStrat Good group
  median PFS: 133 days
[1]; VeriStrat Good group, gemcitabine alone
  median OS: 201 days
[1]; VeriStrat Poor group
  median PFS: 137 days
[1]; VeriStrat Poor group, gemcitabine alone
  median OS: 197 days
[1]; [2]
  hazard ratio (HR), OS by VeriStrat group: 0.82
  hazard ratio (HR), PFS by VeriStrat group: 1.21

## carboplatin and paclitaxel
Ovarian cancer; VeriStrat Good patients
  median disease free survival time: 20 months
  median overall survival time: undefined
Ovarian cancer; VeriStrat Good vs Poor, FIG. 7A
  Hazard Ratio, disease free survival: 0.4906
Ovarian cancer; VeriStrat Good vs Poor, FIG. 7B
  hazard ratio, overall survival: 0.3061
Ovarian cancer; VeriStrat Poor patients
  median disease free survival time: 11 months
  median overall survival time: 21 months
